This experiment concerns the target human EP4 receptor (Homo sapiens (Human), UniProt P35408). Nature of the experiment: Test for antagonism of the human EP4 receptor signal (cAMP HTRF). The experiment is classed as cell-based. The note with it: cells expressing hEP4, PGE2 at EC80 (0.4 nM), cAMP TR-FRET; read-out: Antagonism hEP4 IC50. In a few lines: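 Antagonism of PGE2-stimulated cAMP formation in hEP4-R cells with IBMX present. After lysis, cAMP measured by competitive TR-FRET (Eu cryptate anti-cAMP antibody vs cAMP-d2), 20 min at room temperature. Read-out is the 665/620 nm emission ratio; antagonism appears as restored FRET signal.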
Sequence of human EP4 receptor (P35408 whole entry): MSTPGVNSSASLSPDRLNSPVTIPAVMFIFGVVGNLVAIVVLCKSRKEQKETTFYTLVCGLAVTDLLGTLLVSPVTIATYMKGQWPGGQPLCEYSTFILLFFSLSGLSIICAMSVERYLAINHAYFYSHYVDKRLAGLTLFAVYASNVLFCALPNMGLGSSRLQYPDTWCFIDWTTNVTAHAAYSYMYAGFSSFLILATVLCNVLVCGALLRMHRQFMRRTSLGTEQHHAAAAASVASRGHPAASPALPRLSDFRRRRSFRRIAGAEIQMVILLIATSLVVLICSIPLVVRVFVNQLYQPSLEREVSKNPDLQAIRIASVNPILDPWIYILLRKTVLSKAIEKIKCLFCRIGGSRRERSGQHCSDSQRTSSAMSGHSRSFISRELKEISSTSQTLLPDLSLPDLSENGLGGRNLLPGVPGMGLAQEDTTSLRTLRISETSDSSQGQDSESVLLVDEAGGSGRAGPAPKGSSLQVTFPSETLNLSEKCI
For `CCn1c2ccccc2c2cc(-c3nc4cc(C(=O)NCCN5CCCC5)ccc4n3CCOC)ccc21` [Example 87, 2-(9-Ethyl-9H-carbazol-3-yl)-1-(2-methoxyethyl)-N-[2-(pyrrolidin-1-yl)ethyl]-1H-benzimidazole-5-carboxamide], the half-maximal inhibitory concentration (IC50) (usually the concentration at which inhibition is half-maximal) was 209 nM.
Regarding `CCn1c2ccccc2c2cc(-c3nc4cc(S(=O)(=O)NC)ccc4n3C)ccc21` [Example 129, 2-(9-Ethyl-9H-carbazol-3-yl)-N,1-dimethyl-1H-benzimidazole-5-sulphonamide], the IC50 was found to be 944 nM.
The value for `CCn1c2ccccc2c2cc(-c3nc4cc(-c5n[nH]c(=O)o5)ccc4n3CCOC)ccc21` [Example 106, 5-[2-(9-Ethyl-9H-carbazol-3-yl)-1-(2-methoxyethyl)-1H-benzimidazol-5-yl]-1,3,4-oxadiazol-2(3H)-one] was 43.7 nM.
The value for `C=CCn1c(-c2ccc3c(c2)c2ccccc2n3CC)nc2cc(C(N)=O)ccc21` [Example 89, 1-Allyl-2-(9-ethyl-9H-carbazol-3-yl)-1H-benzimidazole-5-carboxamide] was 3640 nM; that for `CCn1c2ccccc2c2cc(-c3nc4cc(-c5noc(=O)[nH]5)ccc4n3CCOC)ccc21` [Example 46, 3-[2-(9-Ethyl-9H-carbazol-3-yl)-1-(2-methoxyethyl)-1H-benzimidazol-5-yl]-1,2,4-oxadiazol-5(4H)-one] was 12.4 nM; that for `CCn1c2ccccc2c2cc(-c3nc4cc(C(C)(C)O)ccc4n3CCOC)ccc21` [Example 101, 2-[2-(9-Ethyl-9H-carbazol-3-yl)-1-(2-methoxyethyl)-1H-benzimidazol-5-yl]propan-2-ol] was 989 nM.
In the case of `CCn1c2ccccc2c2cc(-c3nc4c(C)c(C(=O)O)ccc4n3CC3CC3)ccc21` [Example 9, 1-(Cyclopropylmethyl)-2-(9-ethyl-9H-carbazol-3-yl)-4-methyl-1H-benzimidazole-5-carboxylic acid], the 50% inhibitory concentration (IC50) was 71.2 nM.
For `COCCn1c(-c2ccc3c(c2)c2ccccc2n3CC2CCC2)nc2cc(C(=O)O)ccc21` [Example 124, 2-[9-(Cyclobutylmethyl)-9H-carbazol-3-yl]-1-(2-methoxyethyl)-1H-benzimidazole-5-carboxylic acid], the IC50 is 94.3 nM.
In the case of `CCn1c2ccccc2c2cc(-c3nc4cc(C(=O)O)c(C)cc4n3CCOC)ccc21` [Example 111, 2-(9-Ethyl-9H-carbazol-3-yl)-1-(2-methoxyethyl)-6-methyl-1H-benzimidazole-5-carboxylic acid], the IC50 is 612 nM.
For `CCn1c2ccccc2c2cc(-c3nc4cc(C(=O)O)ccc4n3CC3CC3)nc(C)c21` [Example 131, 1-(Cyclopropylmethyl)-2-(9-ethyl-1-methyl-9H-beta-carbolin-3-yl)-1H-benzimidazole-5-carboxylic acid], the IC50 was 480 nM.
As for `CCn1c2ccccc2c2cc(-c3nc4cc(C(=O)NS(=O)(=O)c5ccc(C)cc5)ccc4n3CCN(C)C)ccc21` [Example 75, 1-[2-(Dimethylamino)ethyl]-2-(9-ethyl-9H-carbazol-3-yl)-N-[(4-methylphenyl)sulphonyl]-1H-benzimidazole-5-carboxamide], the IC50 amounted to 21.4 nM.
For `CCn1c2ccccc2c2cc(-c3nc4cc(C(=O)NS(=O)(=O)c5ccc(C)cc5)ccc4n3CCOC)ccc21` [Example 48, 2-(9-Ethyl-9H-carbazol-3-yl)-1-(2-methoxyethyl)-N-[(4-methylphenyl)sulphonyl]-1H-benzimidazole-5-carboxamide], the IC50 was found to be 99.5 nM.
Take `C=CCn1c(-c2ccc3c(c2)c2ccccc2n3CC)nc2cc(C(=O)N(C)C)ccc21` [Example 85, 1-Allyl-2-(9-ethyl-9H-carbazol-3-yl)-N,N-dimethyl-1H-benzimidazole-5-carboxamide]: the IC50 worked out at 1860 nM.
The value for `CCn1c2ccccc2c2cc(-c3nc4cc(C(=O)N(C)C)ccc4n3CCOC)ccc21` [Example 83, 2-(9-Ethyl-9H-carbazol-3-yl)-1-(2-methoxyethyl)-N,N-dimethyl-1H-benzimidazole-5-carboxamide] was 122 nM; that for `CCn1c2ccccc2c2cc(-c3nc4cc(C(=O)N5CCOCC5)ccc4n3CCOC)ccc21` [Example 81, [2-(9-Ethyl-9H-carbazol-3-yl)-1-(2-methoxyethyl)-1H-benzimidazol-5-yl](morpholin-4-yl)-methanone] was 123 nM.
Take `CCn1c2ccccc2c2cc(-c3nc4cc(C(=O)NS(=O)(=O)c5ccc(Cl)cc5)ccc4n3CCOC)ccc21` [Example 49, N-[(4-Chlorophenyl)sulphonyl]-2-(9-ethyl-9H-carbazol-3-yl)-1-(2-methoxyethyl)-1H-benzimidazole-5-carboxamide]: the IC50 is 61.5 nM.
For `CCn1c2ccccc2c2cc(-c3nc4cc(C(=O)NS(=O)(=O)c5ccc6ccccc6c5)ccc4n3CCOC)ccc21` [Example 51, 2-(9-Ethyl-9H-carbazol-3-yl)-1-(2-methoxyethyl)-N-(2-naphthylsulphonyl)-1H-benzimidazole-5-carboxamide], the IC50 came to 95.5 nM.
The value for `CCn1c2ccccc2c2cc(-c3nc4cc(C(=O)NS(=O)(=O)Cc5ccccc5OC(F)(F)F)ccc4n3CCOC)ccc21` [Example 65, 2-(9-Ethyl-9H-carbazol-3-yl)-1-(2-methoxyethyl)-N-{[2-(trifluoromethoxy)benzyl]-sulphonyl}-1H-benzimidazole-5-carboxamide] was 133 nM; that for `CCn1c2ccccc2c2cc(-c3nc4cc(C(=O)O)c(OC)cc4n3CCOC)ccc21` [Example 103, 2-(9-Ethyl-9H-carbazol-3-yl)-6-methoxy-1-(2-methoxyethyl)-1H-benzimidazole-5-carboxylic acid] was 3110 nM.
For `CCn1c2ccccc2c2cc(-c3nc4cc(-c5nnn[nH]5)ccc4n3CCOC)ccc21` [Example 45, 9-Ethyl-3-[1-(2-methoxyethyl)-5-(1H-tetrazol-5-yl)-1H-benzimidazol-2-yl]-9H-carbazole] the value was 13.4 nM.
Consider `CCn1c2ccccc2c2nc(-c3nc4cc(C(=O)O)ccc4n3CCOC)ccc21` [Example 42, 2-(5-Ethyl-5H-pyrido[3,2-b]indol-2-yl)-1-(2-methoxyethyl)-1H-benzimidazole-5-carboxylic acid], for which the IC50 was determined as 239 nM.
For the compound `CCn1c2ccccc2c2cc(-c3nc4cc(C(=O)NS(=O)(=O)CCc5ccccc5Cl)ccc4n3CCOC)ccc21` [Example 61, N-{[2-(2-Chlorophenyl)ethyl]sulphonyl}-2-(9-ethyl-9H-carbazol-3-yl)-1-(2-methoxyethyl)-1H-benzimidazole-5-carboxamide], the IC50 came out at 167 nM.
As to `CCn1c2ccccc2c2cc(-c3nc4cc(C(=O)NS(=O)(=O)c5ccccc5OC(F)(F)F)ccc4n3CCOC)ccc21` [Example 54, 2-(9-Ethyl-9H-carbazol-3-yl)-1-(2-methoxyethyl)-N-{[2-(trifluoromethoxy)phenyl]-sulphonyl}-1H-benzimidazole-5-carboxamide], the IC50 came to 17.6 nM.
Consider `CCn1c2ccccc2c2cc(-c3nc4cc(C(=O)NCC(F)(F)F)ccc4n3CC3CC3)ccc21` [Example 27, 1-(Cyclopropylmethyl)-2-(9-ethyl-9H-carbazol-3-yl)-N-(2,2,2-trifluoroethyl)-1H-benzimidazole-5-carboxamide], for which the IC50 was found to be 117 nM.
On to `CCn1c(-c2ccc3c(c2)c2ccccc2n3CC)nc2cc(C(=O)OC)ccc21` [Example 95, Methyl 1-ethyl-2-(9-ethyl-9H-carbazol-3-yl)-1H-benzimidazole-5-carboxylate], for which the IC50 worked out at 1030 nM.
Turning to `CCn1c2ccccc2c2cc(-c3nc4cc(C(=O)NS(=O)(=O)c5ccc(C)cn5)ccc4n3CCOC)ccc21` [Example 63, 2-(9-Ethyl-9H-carbazol-3-yl)-1-(2-methoxyethyl)-N-[(5-methylpyridin-2-yl)sulphonyl]-1H-benzimidazole-5-carboxamide], the IC50 stood at 117 nM.
For `CCn1c2ccccc2c2cc(-c3nc4cc(C(=O)NC)ccc4n3C)ccc21` [Example 90, 2-(9-Ethyl-9H-carbazol-3-yl)-N,1-dimethyl-1H-benzimidazole-5-carboxamide], the IC50 worked out at 2860 nM.
For `CCn1c2ccccc2c2cc(-c3nc4cc(C(=O)NS(=O)(=O)C5CC5)ccc4n3CCN(C)C)ccc21` [Example 74, N-(Cyclopropylsulphonyl)-1-[2-(dimethylamino)ethyl]-2-(9-ethyl-9H-carbazol-3-yl)-1H-benzimidazole-5-carboxamide] the value was 87.2 nM; for `CCn1c2ccccc2c2cc(-c3nc4cc(C(N)=O)ccc4n3CCOC)ccc21` [Example 82, 2-(9-Ethyl-9H-carbazol-3-yl)-1-(2-methoxyethyl)-1H-benzimidazole-5-carboxamide], 134 nM; for `COCCn1c(-c2ccc3c(c2)c2ccccc2n3CCOC)nc2cc(C(=O)O)ccc21` [Example 98, 1-(2-Methoxyethyl)-2-[9-(2-methoxyethyl)-9H-carbazol-3-yl]-1H-benzimidazole-5-carboxylic acid], 112 nM.
Turning to `CCn1c2ccccc2c2cc(-c3nc4cc(C(=O)O)c(F)cc4n3CCOC)ccc21` [Example 113, 2-(9-Ethyl-9H-carbazol-3-yl)-6-fluoro-1-(2-methoxyethyl)-1H-benzimidazole-5-carboxylic acid], the IC50 stood at 59.5 nM.

These data come from patent US9708311B2, “Benzimidazole derivatives as EP4 antagonists” (BAYER PHARMA AKTIENGESELLSCHAFT, priority 2012, dated 2017).
